PubChem BioAssay AID1259407 (Chemical Carcinogenesis Research Information System (CCRIS), 2018)
The source made the active and inactive calls. The rule behind the calls is not given here.

System: CCRIS mutagenicity, Ames/micronucleus/aberration tests
Experiment: CCRIS mutagenicity studies
[1] = Test System: AMES SALMONELLA TYPHIMURIUM, Strain/Indicator: TA1535, Metabolic Activation: NONE, Method: PREINCUBATION
[2] = Test System: AMES SALMONELLA TYPHIMURIUM, Strain/Indicator: TA100, Metabolic Activation: NONE, Method: STANDARD PLATE
[3] = Test System: AMES SALMONELLA TYPHIMURIUM, Strain/Indicator: TA100, Metabolic Activation: NONE, Method: PREINCUBATION
[4] = Test System: AMES SALMONELLA TYPHIMURIUM, Strain/Indicator: TA98, Metabolic Activation: NONE, Method: STANDARD PLATE

Measured: mutagenic call

Nc1cccc2nc3ccccc3cc12
inactive: [1] inactive; negative | Test System: AMES SALMONELLA TYPHIMURIUM, Strain/Indicator: TA1535, Metabolic Activation: RAT, LIVER, S-9, TETRACHLOROBIPHENYL, Method: PREINCUBATION inactive; negative | Test System: AMES SALMONELLA TYPHIMURIUM, Strain/Indicator: TA1538, Metabolic Activation: NONE, Method: PREINCUBATION inactive; negative | Test System: AMES SALMONELLA TYPHIMURIUM, Strain/Indicator: TA1978, Metabolic Activation: RAT, LIVER, S-9, TETRACHLOROBIPHENYL, Method: PREINCUBATION inactive; negative
active: Test System: AMES SALMONELLA TYPHIMURIUM, Strain/Indicator: TA1537, Metabolic Activation: NONE, Method: PREINCUBATION active; positive | Test System: AMES SALMONELLA TYPHIMURIUM, Strain/Indicator: TA1537, Metabolic Activation: RAT, LIVER, S-9, TETRACHLOROBIPHENYL, Method: PREINCUBATION active; positive | Test System: AMES SALMONELLA TYPHIMURIUM, Strain/Indicator: TA1538, Metabolic Activation: RAT, LIVER, S-9, TETRACHLOROBIPHENYL, Method: PREINCUBATION active; positive | Test System: AMES SALMONELLA TYPHIMURIUM, Strain/Indicator: TA1977, Metabolic Activation: NONE, Method: PREINCUBATION active; positive | Test System: AMES SALMONELLA TYPHIMURIUM, Strain/Indicator: TA1977, Metabolic Activation: RAT, LIVER, S-9, TETRACHLOROBIPHENYL, Method: PREINCUBATION active; positive

O=C1NC(=O)C(Cl)(Cl)C1=C(Cl)Cl
active: [2] active; positive

O=Cc1ccc([N+](=O)[O-])cc1[N+](=O)[O-]
active: Test System: AMES SALMONELLA TYPHIMURIUM, Strain/Indicator: TA98(1,8-DNP6), Metabolic Activation: NONE, Method: SUSPENSION/PLATE active; positive | Test System: AMES SALMONELLA TYPHIMURIUM, Strain/Indicator: TA98(NR), Metabolic Activation: NONE, Method: SUSPENSION/PLATE active; positive | Test System: AMES SALMONELLA TYPHIMURIUM, Strain/Indicator: TA98, Metabolic Activation: NONE, Method: PREINCUBATION active; positive | Test System: AMES SALMONELLA TYPHIMURIUM, Strain/Indicator: TA98, Metabolic Activation: NONE, Method: SUSPENSION/PLATE active; positive | Test System: AMES SALMONELLA TYPHIMURIUM, Strain/Indicator: TA98, Metabolic Activation: RAT, LIVER, S-9, PHENOBARBITAL AND 5,6-BENZOFLAVONE, Method: PREINCUBATION active; positive | Test System: AMES SALMONELLA TYPHIMURIUM, Strain/Indicator: TA100(1,8-DNP6), Metabolic Activation: NONE, Method: SUSPENSION/PLATE active; positive | Test System: AMES SALMONELLA TYPHIMURIUM, Strain/Indicator: TA100(NR), Metabolic Activation: NONE, Method: SUSPENSION/PLATE active; positive | [3] active; positive | Test System: AMES SALMONELLA TYPHIMURIUM, Strain/Indicator: TA100, Metabolic Activation: NONE, Method: SUSPENSION/PLATE active; positive | Test System: AMES SALMONELLA TYPHIMURIUM, Strain/Indicator: TA100, Metabolic Activation: RAT, LIVER, S-9, PHENOBARBITAL AND 5,6-BENZOFLAVONE, Method: PREINCUBATION active; positive

COc1ccc(-c2nc(-c3ccc(C)cc3)c(-c3ccc(C)cc3)[nH]2)cc1OC
active: [4] active; positive | [2] active; positive
inactive: Test System: AMES SALMONELLA TYPHIMURIUM, Strain/Indicator: TA98, Metabolic Activation: RAT LIVER S-9, 3-METHYLCHOLANTHRENE, SODIUM PHENOBARBITAL, Method: STANDARD PLATE inactive; negative | Test System: AMES SALMONELLA TYPHIMURIUM, Strain/Indicator: TA100, Metabolic Activation: RAT LIVER S-9, 3-METHYLCHOLANTHRENE, SODIUM PHENOBARBITAL, Method: STANDARD PLATE inactive; negative

O=C1CCc2c1cc(C(F)(F)F)c1c2ccc2ccccc21
active: Test System: AMES SALMONELLA TYPHIMURIUM, Strain/Indicator: TA100, Metabolic Activation: RAT, LIVER, S-9, AROCLOR 1254 active; positive

CC(O)CBr (stereo not drawn)
active: [3] active; positive | Test System: AMES SALMONELLA TYPHIMURIUM, Strain/Indicator: TA100, Metabolic Activation: RAT, LIVER, S-9, AROCLOR 1254 (10%), Method: PREINCUBATION active; positive | Test System: AMES SALMONELLA TYPHIMURIUM, Strain/Indicator: TA1535, Metabolic Activation: HAMSTER, LIVER, S-9, AROCLOR 1254 (10%), Method: PREINCUBATION active; positive | [1] active; positive | Test System: AMES SALMONELLA TYPHIMURIUM, Strain/Indicator: TA1535, Metabolic Activation: RAT, LIVER, S-9, AROCLOR 1254 (10%), Method: PREINCUBATION active; positive
inactive: Test System: AMES SALMONELLA TYPHIMURIUM, Strain/Indicator: TA97, Metabolic Activation: HAMSTER, LIVER, S-9, AROCLOR 1254 (10%), Method: PREINCUBATION inactive; negative | Test System: AMES SALMONELLA TYPHIMURIUM, Strain/Indicator: TA97, Metabolic Activation: NONE, Method: PREINCUBATION inactive; negative | Test System: AMES SALMONELLA TYPHIMURIUM, Strain/Indicator: TA97, Metabolic Activation: RAT, LIVER, S-9, AROCLOR 1254 (10%), Method: PREINCUBATION inactive; negative | Test System: AMES SALMONELLA TYPHIMURIUM, Strain/Indicator: TA98, Metabolic Activation: HAMSTER, LIVER, S-9, AROCLOR 1254 (10%), Method: PREINCUBATION inactive; negative | Test System: AMES SALMONELLA TYPHIMURIUM, Strain/Indicator: TA98, Metabolic Activation: RAT, LIVER, S-9, AROCLOR 1254 (10%), Method: PREINCUBATION inactive; negative | Test System: AMES SALMONELLA TYPHIMURIUM, Strain/Indicator: TA100, Metabolic Activation: HAMSTER, LIVER, S-9, AROCLOR 1254 (10%), Method: PREINCUBATION inactive; negative

O=[N+]([O-])c1ccc(OC[C@@H]2CO2)cc1
active: [2] active; positive

C[C@H](CC1=C(C=O)CO[C@@H]1O)C1=CCC(C)(C)C1
inactive: [4] inactive; negative | [2] inactive; negative | Test System: AMES SALMONELLA TYPHIMURIUM, Strain/Indicator: TA2637, Metabolic Activation: NONE, Method: STANDARD PLATE inactive; negative

N[C@@H](CCS/C(Cl)=C/Cl)C(=O)O
inactive: Test System: AMES SALMONELLA TYPHIMURIUM, Strain/Indicator: TA2638, Metabolic Activation: NONE, Method: PREINCUBATION inactive; negative
active: Test System: AMES SALMONELLA TYPHIMURIUM, Strain/Indicator: TA2638, Metabolic Activation: RAT, KIDNEY, CYTOSOL, Method: PREINCUBATION active; positive

CNc1ccc(O)c2c1C(=O)c1c(O)ccc(NC)c1C2=O
inactive: Test System: Ames Salmonella typhimurium, Strain/Indicator: TA102, Metabolic Activation: None, Method: Preincubation inactive; negative
active: Test System: Ames Salmonella typhimurium, Strain/Indicator: TA98, Metabolic Activation: None, Method: Preincubation active; positive | Test System: Ames Salmonella typhimurium, Strain/Indicator: TA100, Metabolic Activation: None, Method: Preincubation active; positive | Test System: Ames Salmonella typhimurium, Strain/Indicator: TA1535, Metabolic Activation: None, Method: Preincubation active; positive

CC(C)(Br)C(=O)NCc1ccccc1
inactive: Test System: AMES SALMONELLA TYPHIMURIUM, Strain/Indicator: TA100, Metabolic Activation: MOUSE, LIVER, S-9, AROCLOR 1254, Method: STANDARD PLATE inactive; negative | [2] inactive; negative
